In brackets after ≈: the same amount, converted by molar mass.
Tested on: PT22AV
Assay: Minimum inhibitory concentration of fungicides in NYDA agar
Conditions: for Minimum inhibitory concentration: fungicide against PT22AV, incorporated in NYDA agar; for Resistance level: resistance level of PT22AV to the fungicide; for MIC: Papiliotrema terrestris, read-out: Minimum inhibitory concentration

Molecule | Minimum inhibitory concentration [µg/mL] | Resistance level | MIC [µg/mL]
CO/C=C(/C(=O)OC)c1ccccc1Oc1cc(Oc2ccccc2C#N)ncn1 [Azoxystrobin] | 1000 (≈ 2.48 mM) | Resistant | 
CCCCNC(=O)n1c(NC(=O)OC)nc2ccccc21 [Benomyl] |  | Resistant | 1000 (≈ 3.44 mM)
COC(=O)Nc1nc2ccccc2[nH]1 [Carbendazim] |  | Resistant | 1000 (≈ 5.23 mM)
[Cl-].[Cu+2].[Cu+2].[OH-].[OH-].[OH-] [Copper oxychloride] | 500 | Resistant | 
N#Cc1c[nH]cc1-c1cccc2c1OC(F)(F)O2 [Fludioxonil] |  |  | 1000 (≈ 4.03 mM)
C=CCOC(Cn1ccnc1)c1ccc(Cl)cc1Cl (stereo not drawn) [Imazalil] |  | Sensitive | 300 (≈ 1.01 mM)
CCCC(Cn1cncn1)c1ccc(Cl)cc1Cl (stereo not drawn) [Penconazol] |  | Sensitive | 200 (≈ 0.704 mM)
CC12CC1(C)C(=O)N(c1cc(Cl)cc(Cl)c1)C2=O (stereo not drawn) [Procymidone] |  | Resistant | 1000 (≈ 3.52 mM)
S1SSSSSSS1 [Sulfur] |  | Resistant | 2000 (≈ 7.8 mM)
CC(C)(C)C(O)(CCc1ccc(Cl)cc1)Cn1cncn1 (stereo not drawn) [Tebuconazole] |  | Sensitive | 100 (≈ 0.325 mM)
c1ccc2[nH]c(-c3cscn3)nc2c1 [Thiabendazole] |  | Resistant | 1000 (≈ 4.97 mM)
CON=C(C(=O)OC)c1ccccc1CON=C(C)c1cccc(C(F)(F)F)c1 [Trifloxystrobin] |  | Resistant | 1000 (≈ 2.45 mM)
C=CC1(C)OC(=O)N(c2cc(Cl)cc(Cl)c2)C1=O (stereo not drawn) [Vinclozolin] |  | Resistant | 1000 (≈ 3.5 mM)
Mancozeb | 300 | Sensitive | 
